Results on eight compounds are retold here after patent US9828338B2, “Carbamate derivatives of lactam based N-acylethanolamine acid amidase (NAAA) inhibitors” (The Regents of the University of California, priority 2013, dated 2017).

One assay deals with T1, human NAAA (Homo sapiens, UniProt Q02083).
T1 construct: made in house; host or cells: HEK293 cells, stably transfected; soluble lysosomal fraction used as enzyme source
T1 sequence (Q02083 29-359): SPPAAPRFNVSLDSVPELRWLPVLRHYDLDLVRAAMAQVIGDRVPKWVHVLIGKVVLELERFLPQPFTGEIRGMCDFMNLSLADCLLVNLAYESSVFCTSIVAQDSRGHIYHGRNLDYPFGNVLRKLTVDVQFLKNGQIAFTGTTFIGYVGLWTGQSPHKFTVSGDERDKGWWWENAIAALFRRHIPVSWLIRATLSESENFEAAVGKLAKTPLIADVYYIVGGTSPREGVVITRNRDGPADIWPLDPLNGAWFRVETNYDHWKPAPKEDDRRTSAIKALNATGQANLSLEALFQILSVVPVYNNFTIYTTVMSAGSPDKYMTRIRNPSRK
Description: Fluorogenic h-NAAA assay. It is filed as biochemical. Here is the method: Hek293 cells stably transfected with the human NAAA coding sequence cloned from a human spleen cDNA library were used as enzyme source. Recombinant HEK-hNAAA pellets were resuspended in homogenizing buffer, and sonicated. Samples were centrifuged at 800×g for 15 min at 4° C. and the resultant supernatants were then ultracentrifuged at 12,000×g for 30 min at 4° C. The pellets were resuspended in PBS pH 7.4 on ice and subjected to a freeze/thaw cycle at −80° C. The suspension was finally centrifuged at 105,000×g for 1 h at 4° C. Protein concentration was measured and samples aliquoted and stored at −80° C. until use.
The assay was run in Optiplate 96-wells black plates, in a total reaction volume of 200 μL. NAAA protein preparation (4.0 μg) was pre-incubated for 10 min with various concentrations of test compounds or vehicle control (5% DMSO) in 100 mM citrate/phosphate buffer (pH 4.5) containing 3.0 mM DTT, 0.1% Triton X-100, 0.05% BSA, 150 mM NaCl. N-(4-methyl-2-oxo-chromen-7-yl)-hexadecanamide was used as a substrate (5.0 μM) and the reaction carried over for 30 min at 37° C. The samples were then read in a Perkin Elmer Envision plate reader using an excitation wavelength of 360 nm and emission 460 nm. IC50 values were calculated by non-linear regression analysis of log [concentration]/inhibition curves using GraphPad Prism 5 (GraphPad Software Inc., CA—USA) applying a standard slope curve fitting.

The next assay addresses T2, Rat AC (r-AC) (Rattus norvegicus, UniProt Q6P7S1).
T2 construct: V5 (C); His (C); made in house; host or cells: HEK293 cells transfected with pEF6-rAC-V5/His, G418 selected; soluble lysosomal fraction
T2 sequence (Q6P7S1 21-394): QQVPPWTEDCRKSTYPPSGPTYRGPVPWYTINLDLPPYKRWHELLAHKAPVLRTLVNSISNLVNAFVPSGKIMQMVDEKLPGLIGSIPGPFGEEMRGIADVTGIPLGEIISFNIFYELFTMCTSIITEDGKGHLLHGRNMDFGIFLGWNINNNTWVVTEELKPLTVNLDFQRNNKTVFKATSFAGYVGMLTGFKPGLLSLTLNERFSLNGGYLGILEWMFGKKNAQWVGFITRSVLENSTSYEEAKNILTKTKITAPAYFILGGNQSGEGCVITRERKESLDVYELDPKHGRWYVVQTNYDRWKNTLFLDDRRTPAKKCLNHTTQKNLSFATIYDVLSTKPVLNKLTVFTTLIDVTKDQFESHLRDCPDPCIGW
In words: Rat AC (r-AC) assay. Conditions: for pIC50: read-out: r-AC UPLC/MS assay IC50. Type of assay: biochemical. The method, then:
The selectivity of selected compounds versus Acid Ceramidase (AC) was determined.
Rat AC (r-AC) was cloned from a brain cDNA library using primers based on the sequence obtained from the National Center for Biotechnology Information (NCBI) database: 5′rAC (5′-[…]-3′) (SEQ ID NO:1) and 3′rAC (5′-[…]-3′) (SEQ ID NO:2). The PCR (High Fidelity PCR Master, Roche) product was subcloned into a pEF6-V5/His vector (Invitrogen) to construct a mammalian expression vector encoding V5/His-tagged rat AC. HEK293 cells were transfected with pEF6-rAC-V5/His using Super-Fect reagent (Qiagen) and screened with G418 (0.3 mg/mL). Cells were suspended in 20 mM Tris HCl (pH 7.5) containing 0.32M sucrose, sonicated and centrifuged at 800×g for 15 minutes at 4° C. The supernatants were centrifuged again at 12,000×g for 30 minutes at 4° C. The pellets were suspended in phosphate-buffered saline (PBS) and subjected to 2 freeze-thaw cycles at −80° C. The suspensions were centrifuged at 105,000×g for 1 hour at 4° C. The supernatants containing recombinant AC were kept at −80° C. until use. Protein concentration was measured using the bicinchoninic acid (BCA) assay (Pierce). Recombinant rat AC (50 μg) was preincubated with inhibitors (final DMSO concentration 1%) in assay buffer (100 mM sodium phosphate, 0.1% Nonidet P-40, 150 mM NaCl, 3 mM DTT, 100 mM sodium citrate, pH 4.5) for 30 minutes at 37° C. Reactions were started by the addition of 100 μM N-lauroyl ceramide (Nu-Chek Prep, Elysian, Minn.) and carried on for 30 minutes at 37° C. Reactions were stopped by addition of a mixture of chloroform/methanol (2:1, vol/vol) containing 1 nmol of heptadecanoic acid (HDA; NuChek Prep). The organic phases were collected, dried under N2, and analyzed by LC-MS in the negative-ion mode using […] (HDA) as internal standard (m/z=199 for lauric acid, m/z=269 for HDA). […]. The column temperature was 50° C. Electrospray ionization (ESI) was in the negative mode, capillary voltage as 4 kV, and fragmentor voltage was 100 V. N2 was used as drying gas at a flow rate of 13 L/min and a temperature of 350° C. Nebulizer pressure was set at 60 psi. We monitored [M-H]− in the selected-ion monitoring (SIM) mode using HDA as internal standard. Calibration curves were generated using commercial lauric acid (Nu-Chek Prep; m/z=199).

Another assay deals with T3, r-NAAA (Rattus norvegicus, UniProt Q5KTC7).
T3 construct: Lysosomal NAAA protein preparation was obtained by homogenizing male Sprague-Dawley rat lungs; tissue Charles River (animals); host or cells: male Sprague-Dawley rat lung, soluble lysosomal fraction
T3 sequence (Q5KTC7 34-362): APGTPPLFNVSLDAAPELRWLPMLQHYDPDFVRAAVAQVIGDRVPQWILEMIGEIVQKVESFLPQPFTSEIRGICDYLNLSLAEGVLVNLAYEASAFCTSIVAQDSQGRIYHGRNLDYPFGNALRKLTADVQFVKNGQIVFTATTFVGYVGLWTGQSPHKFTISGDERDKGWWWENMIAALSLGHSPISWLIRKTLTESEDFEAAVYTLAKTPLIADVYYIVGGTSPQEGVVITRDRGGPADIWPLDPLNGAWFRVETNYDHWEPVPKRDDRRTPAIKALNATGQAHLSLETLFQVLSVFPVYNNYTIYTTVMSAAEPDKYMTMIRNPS
In words: UPLC/MS r-NAAA assay. It is filed as biochemical.

Assay [1] deals with mice. In words: LPS-induced inflammation (lung). Conditions: for neutrophil migration/infiltration into lung tissue: 6 h and 24 h.
Description: Mice were anesthetized with ketamine and xylazine (100 and 10 mg/kg, respectively), and were subjected to intranasal instillation of LPS (1 μg/μL) or vehicle (saline 0.9%); the volume used was 1 μL/g body weight. In order to avoid drawing, the weight of each animal was divided by three; therefore each mouse received the respective volume of LPS or vehicle. Ex: animal 1 (24 g) received 3 times an intranasal instillation of 8 μL of LPS solution or vehicle.
The bronchoalveolar lavage and lung samples were collected 6 h or 24 h after the induction of inflammation.
Assay [2] relates to mice. In words: Carrageenan-induced inflammation (paw edema, heat hyperalgesia). Type of assay: in vivo. Conditions: compound 5 3-30 mg/kg p.o. (In general: The carrageenan paw model is a standard test of acute inflammation.)
Assay [3] deals with mice. Description: Carrageenan-induced lung inflammation. It is filed as in vivo. Conditions: carrageenan 2%. Here is the method: The chest was carefully opened and the pleural cavity was rinsed with 1 mL of saline solution containing heparin (5 U/mL). The exudate and washing solution were removed by aspiration and the total volume of the fluid was measured. Any exudate that was contaminated with blood was discarded. The amount of exudate was calculated by subtracting the volume of washing fluid injected from the total volume recovered.

[4] abbreviates: read-out: r-AC UPLC/MS assay % inhib.
Where [5] appears, read: @ 10 μM, read-out: r-AC UPLC/MS assay % inhib.
Setting [6] is: compound 5 30 mg/kg p.o., dexamethasone 0.5 mg/kg i.p.

pIC50: −log10 of the molar value. Entries after “also recorded” stand apart in the source; their conditions may differ. Like-named read-outs stand apart in the source and are kept apart here.

Consider `C[C@@H]1NC(=O)[C@H]1NC(=O)OCc1ccc(C2CCCCC2)cc1` [Example 74, (4-Cyclohexylphenyl)-methyl-N-[(2S,3S)-2-methyl-4-oxo-azetidin-3-yl]-carbamate], for which the pIC50 against human NAAA is 6.97; against r-NAAA, 7.34. Further, the inhibition at 10 µM at Rat AC (r-AC) (setting [4]) came out at 20%.

For `CCCCCCCOC(=O)N[C@H]1CNC1=O` [Example 1, Heptyl-N-[(3S)-2-oxoazetidin-3-yl]-carbamate], at Rat AC (r-AC) (@ 1 μM, read-out: r-AC UPLC/MS assay % inhib.), the inhibition at 1 µM was 37%. On r-NAAA, this compound showed a pIC50 of 6.15.

Turning to `C[C@@H]1NC(=O)[C@H]1NC(=O)OCc1ccc(-c2ccccc2)cc1` [Example 73, (4-Phenylphenyl)-methyl-N-[(2S,3S)-2-methyl-4-oxo-azetidin-3-yl]-carbamate], the inhibition at 10 µM on Rat AC (r-AC) (setting [4]) was 20%. The compound also showed a pIC50 against r-NAAA of 6.05.

`C[C@H]1NC(=O)[C@H]1NC(=O)OCCCCC1CCCCC1` [Example 76, 4-Cyclohexylbutyl-N-[(2R,3S)-2-methyl-4-oxo-azetidin-3-yl]-carbamate]: the inhibition at 10 µM at Rat AC (r-AC) (setting [5]) is 5%. This compound also had a pIC50 on r-NAAA of 4.06.

`O=C(N[C@H]1CNC1=O)OCCCCC1CCCCC1` [Example 5, 4-Cyclohexylbutyl-N-[(3S)-2-oxoazetidin-3-yl]-carbamate]: the “LPS induced increase of IL-6, TNF-α and MIP-2/CXCL2 in tissue and BAL” value with mice [1] (30 mg/kg po, at 6 hr) is “significantly reduced”. The “neutrophil migration/infiltration into lung tissue” value in the assay with mice [1] (LPS, 30 mg/kg po, listed as Compound 5, 30 mg/kg) was “prevented”. The “neutrophil migration/infiltration into lung tissue” value in the assay with mice [1] (LPS, 30 mg/kg po, listed as compound 5, 30 mg/kg) is “prevents”. The “production of cytokines/chemokines in BAL and lung tissue” value in the assay with mice [1] (LPS, compound 5 30 mg/kg p.o., 30 min) is listed as “prevents”. In the assay with mice [2], the heat hyperalgesia entry is recorded as “reduced; also recorded: markedly attenuated” and the paw edema result was “reduced; also recorded: markedly attenuated”. For the same compound, on Rat AC (r-AC), the pIC50 was 4.90. Moreover, in the assay with mice [3] (setting [6]), the “TNF-alpha concentration in pulmonary exudate” value is “normalizes” and the “number of leukocytes (neutrophils) in the pulmonary exudate (FACS)” value is recorded as “normalized”. The “myeloperoxidase (MPO) activity in lung tissue” value in the assay on mice [3] (compound 5 0.1-30 mg/kg p.o., dexamethasone 0.5 mg/kg i.p.) is “normalizes; also recorded: dose-dependently normalized”. The “increase of TNF-α in the pulmonary exudate” value in the assay with mice [3] (compound 5 0.1-30 mg/kg po) is “dose-dependently normalized”.

On to `O=C(N[C@H]1CNC1=O)OCc1ccc(C2CCCCC2)cc1` [Example 31, (4-Cyclohexylphenyl)-methyl-N-[(3S)-2-oxoazetidin-3-yl]-carbamate], for which the pIC50 at Rat AC (r-AC) is 4.66; on r-NAAA, 7.55.

For `C[C@@H]1NC(=O)[C@H]1NC(=O)OCCCCC1CCCCC1` [Example 72, 4-Cyclohexylbutyl-N-[(2S,3S)-2-methyl-4-oxo-azetidin-3-yl]-carbamate], the inhibition at 10 µM on Rat AC (r-AC) (setting [5]) came out at 20%. The pIC50 on r-NAAA was 7.30.

In the case of `O=C(N[C@H]1CNC1=O)OCc1ccc(-c2ccccc2)cc1` [Example 17, (4-Phenylphenyl)-methyl-N-[(3S)-2-oxoazetidin-3-yl]-carbamate], the pIC50 at Rat AC (r-AC) is 4.70; against r-NAAA, 6.51.
